Assay results published in patent US20250346606A1, “CAMPTOTHECIN COMPOUND, PREPARATION METHOD THEREFOR, AND APPLICATION THEREOF” (SICHUAN KELUN-BIOTECH BIOPHARMACEUTICAL CO., LTD., priority 2021, published 2025).
Where two headings read alike, the source gives them in different places.

Key:
Type in all cases: cell-based, Human
MDA-MB-231 cells = experiment: Inhibitory effect of compounds on MDA-MB-231 cell proliferation; settings: read-out: IC50, inhibitory activity on MDA-MB-231 cell proliferation
Procedure: (1) Cell plating: First, tumor cells MDA-MB-231 were cultured in corresponding medium, then digested with trypsin, centrifuged, resuspended, and counted, and the cells were adjusted to an appropriate concentration for plating.
(§1) Co-incubation of the compound of the present disclosure and tumor cells: after the cells adhered to the wall, the medium was removed, and the diluted bioactive molecule (the compound of the present disclosure) was added to the wells of the above plate, and incubated for 72 h.
(§2) In vitro cell viability detection: After the incubation, 50 μL of Cell Counting-Lite™ 2.0 reagent (Vazyme/Novazyme) was added to each well, shaken and mixed well in the dark, reacted for 10 minutes, and then the detection was carried out with a microplate reader (manufacturer: BMG, Model: PHERAStar-FS) for reading. The background RLU was obtained by using cell-free medium (with Cell Counting-Lite™), and the vehicle RLU was obtained by using cell-containing medium (with Cell Counting-Lite™). Cell inhibition rate=1−(sample RLU−background RLU)/(solvent RLU−background RLU)×100%. According to the four-parameter model fitting curve, the half maximal inhibitory concentration (IC50) of the compound was calculated, and the detection results were shown in Table 18.

Hela cells = experiment: Inhibitory effect of compounds on Hela cell proliferation; settings: read-out: IC50, inhibitory activity on Hela cell proliferation
Procedure: (1) Cell plating: First, tumor cells Hela were cultured in corresponding medium, then digested with trypsin, centrifuged, resuspended, and counted, and the cells were adjusted to an appropriate concentration for plating.
as §1
as §2, with “14.” for “18.”

NCI-H358 cells = experiment: Inhibitory effect of compounds on NCI-H358 cell proliferation
In short: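 Adherent NCI-H358 cells were exposed to compound for 72 h, then viability was read by luminescence (Cell Counting-Lite 2.0). Inhibition calculated from RLU relative to cell-free background and vehicle wells; IC50 from a four-parameter fit.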

HCC1806 cells = experiment: Inhibitory effect of compounds on HCC1806 cell proliferation
Procedure: (1) Cell plating: First, tumor cells HCC1806 were cultured in corresponding medium, then digested with trypsin, centrifuged, resuspended, and counted, and the cells were adjusted to an appropriate concentration for plating.
as §1
as §2, with “6.” for “18.”

HT29 cells = experiment: Inhibitory effect of compounds on HT29 cell proliferation; settings: read-out: IC50, inhibitory activity on HT29 cell proliferation
In short: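 Adherent HT29 cells incubated with diluted compounds for 72 h; viability read by luminescence (Cell Counting-Lite 2.0, 10 min). Inhibition calculated against cell-free background and vehicle-treated cells; IC50 from four-parameter curve fit.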

SKOV-3 cells = experiment: Inhibitory effect of compounds on SKOV-3 cell proliferation; settings: read-out: IC50, inhibitory activity on SKOV-3 cell proliferation
Procedure: (1) Cell plating: First, tumor cells SKOV-3 were cultured in corresponding medium, then digested with trypsin, centrifuged, resuspended, and counted, and the cells were adjusted to an appropriate concentration for plating.
as §1
as §2, with “8.” for “18.”

A549 cells = experiment: Inhibitory effect of compounds on A549 cell proliferation; settings: read-out: IC50, inhibitory activity on A549 cell proliferation
Procedure: (1) Cell plating: First, tumor cells A549 were cultured in the corresponding medium, then digested with trypsin, centrifuged and resuspended, and counted, and the cells were adjusted to an appropriate concentration for plating.
as §1
as §2, with “activity” for “viability”, “4.” for “18.”

Jeko-1 cells = experiment: Inhibitory effect of compounds on Jeko-1 cell proliferation; settings: Jeko-1 human mantle cell lymphoma cells, 72 h incubation, Cell Counting-Lite 2.0; read-out: IC50, inhibitory activity on Jeko-1 cell proliferation
Procedure: (1) Cell plating: First, tumor cells Jeko-1 were cultured in corresponding medium, then digested with trypsin, centrifuged, resuspended, and counted, and the cells were adjusted to an appropriate concentration for plating.
as §1
as §2, with “20.” for “18.”

NCI-N87 cells = experiment: Inhibitory effect of compounds on NCI-N87 cell proliferation
In short: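 Adherent NCI-N87 cells were exposed to compound dilutions for 72 h. Viability measured by Cell Counting-Lite 2.0 luminescence, with inhibition calculated against vehicle and cell-free background RLU. IC50 from four-parameter fit.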

HCC70 cells = experiment: Inhibitory effect of compounds on HCC70 cell proliferation; settings: read-out: IC50, inhibitory activity on HCC70 cell proliferation
Procedure: (1) Cell plating: First, tumor cells HCC70 were cultured in corresponding medium, then digested with trypsin, centrifuged, resuspended, and counted, and the cells were adjusted to an appropriate concentration for plating.
as §1
as §2, with “16.” for “18.”

[1] = Homo sapiens, NCI-H358, 72 h, read-out: IC50, inhibitory activity on NCI-H358 cell proliferation, NCI-H358 human non-small cell lung cancer cells, 72 h incubation, Cell Counting-Lite 2.0
[2] = Homo sapiens, HCC1806, 72 h, read-out: IC50, inhibitory activity on HCC1806 cell proliferation, HCC1806 human breast squamous carcinoma cells, 72 h incubation, Cell Counting-Lite 2.0
[3] = HT-29, HT29 human colon cancer cells, 72 h incubation, Cell Counting-Lite 2.0
[4] = NCI-N87 human gastric cancer cells, 72 h incubation, Cell Counting-Lite 2.0, read-out: IC50, inhibitory activity on NCI-N87 cell proliferation

Structure (SMILES) | IC50 (NCI-H358 cells; [1]) [nM] | IC50 (HCC1806 cells; [2]) [nM] | IC50 (HT29 cells; Homo sapiens, HT-29, 72 h) [nM] | IC50 (SKOV-3 cells; Homo sapiens, SK-OV-3, 72 h) [nM] | IC50 (HT29 cells; [3]) [nM] | IC50 (NCI-N87 cells; [4]) [nM] | IC50 (HCC70 cells; Homo sapiens, HCC70, 72 h) [nM] | IC50 (A549 cells; Homo sapiens, A549, 72 h) [nM] | other results
CC[C@@]1(O)C(=O)OCc2c1cc1n(c2=O)Cc2c-1nc1cc(Cl)c(C)c3c1c2[C@@H](NC(=O)CO)CC3 [Example 3 (2-1-A), N-((1S,9S)-5-chloro-9-ethyl-9-hydroxy-4-methyl-10,13-dioxo-2,3,9,10,13,15-hexahydro-1H,12H-benzo[de]pyrano[3′,4′:6,7]indolizino[1,2-b]quinolin-1-yl)-2-hydroxyacetamide] | 68.6 | 1.43 | 5.03 | 7.12 | – | – | – | – | IC50 (MDA-MB-231 cells; Homo sapiens, MDA-MB-231, 72 h): 300 nM; IC50 (Hela cells; Homo sapiens, HeLa, 72 h): 17 nM
CC[C@@]1(O)C(=O)OCc2c1cc1n(c2=O)Cc2c-1nc1cc(F)c(C)cc1c2CNC(=O)C1(O)CC1 [Example 11 (4-10), (S)—N-((4-ethyl-8-fluoro-4-hydroxy-9-methyl-3,14-dioxo-3,4,12,14-tetrahydro-1H-pyrano[3′,4′:6,7]indolizino[1,2-b]quinolin-11-yl)methyl)-1-hydroxycyclopropane-carboxamide] | – | – | – | – | 0.52 | 2.29 | – | – | IC50 (Hela cells; Hela human cervical cancer cells, 72 h incubation, Cell Counting-Lite 2.0): 3.04 nM; IC50 (A549 cells; A549 human lung cancer cells, 72 h incubation, Cell Counting-Lite 2.0): 68.5 nM; IC50 (Jeko-1 cells): 0.45 nM
CC[C@@]1(O)C(=O)OCc2c1cc1n(c2=O)Cc2c-1nc1cc(Cl)c(C)c3c1c2[C@@H](NC(=O)[C@H](O)C1CC1)CC3 [Example 5 (2-12-C), (2R)—N-((1S,9S)-5-chloro-9-ethyl-9-hydroxy-4-methyl-10,13-dioxo-2,3,9,10,13,15-hexahydro-1H,12H-benzo[de]pyrano[3′,4′:6,7]indolizino[1,2-b]quinolin-1-yl)-2-cyclopropyl-2-hydroxyacetamide] | 23.1 | 2.08 | 1.49 | 6.52 | – | – | 211 | 6.64 | IC50 (NCI-N87 cells; Homo sapiens, NCI-N87, 72 h, read-out: IC50, inhibitory activity on NCI-N87 cell proliferation, NCI-N87 human gastric cancer cells, 72 h incubation, Cell Counting-Lite 2.0): 4.51 nM
CC[C@@]1(O)C(=O)OCc2c1cc1n(c2=O)Cc2c-1nc1cc(Cl)c(C)c3c1c2[C@H](NC[C@H](C)O)CC3 [Example 4 (2-7-B), (2S)—N-((1R,9S)-5-chloro-9-ethyl-9-hydroxy-4-methyl-10,13-dioxo-2,3,9,10,13,15-hexahydro-1H,12H-benzo[de]pyrano[3′,4′:6,7]indolizino[1,2-b]quinolin-1-yl)-2-hydroxypropylamine] | 51.1 | – | 5.44 | 9.47 | – | – | 192 | 16.4 | –
CC[C@@]1(O)C(=O)OCc2c1cc1n(c2=O)Cc2c-1nc1cc(F)c(C)c3c1c2[C@@](C)(N)CC3 (single isomer, unassigned) [Example 12 (5-13-A)] | – | – | – | – | 0.88 | 2.33 | – | – | IC50 (MDA-MB-231 cells; MDA-MB-231 human breast cancer cells, 72 h incubation, Cell Counting-Lite 2.0): 333 nM; IC50 (NCI-H358 cells; NCI-H358 human non-small cell lung cancer cells, 72 h incubation, Cell Counting-Lite 2.0, read-out: IC50, inhibitory activity on NCI-H358 cell proliferation): 7.01 nM; IC50 (HCC70 cells; HCC70 human breast cancer cells, 72 h incubation, Cell Counting-Lite 2.0): 36.6 nM; IC50 (HCC1806 cells; HCC1806 human breast squamous carcinoma cells, 72 h incubation, Cell Counting-Lite 2.0, read-out: IC50, inhibitory activity on HCC1806 cell proliferation): 0.96 nM; IC50 (SKOV-3 cells; SK-OV-3, SKOV-3 human ovarian cancer cells, 72 h incubation, Cell Counting-Lite 2.0): 2.09 nM
